Measured values: the supplement of paper PMC10307832

How the values were obtained:
Experiment in all cases: relative viability (nuclei count vs DMSO), 5 days (fraction); higher = more cells survive
[1] = compound: C[C@]1(O)C[C@@H](c2nc(-c3ccc4ccc(-c5ccccc5)nc4c3)c3c(N)nccn32)C1 [Linsitinib] + CC1(C)CCC(c2ccc(Cl)cc2)=C(CN2CCN(c3ccc(C(=O)NS(=O)(=O)c4ccc(N[C@H](CCN5CCOCC5)CSc5ccccc5)c(S(=O)(=O)C(F)(F)F)c4)cc3)CC2)C1 [Navitoclax] (partner 0.5 µM)
How it was run: (§1)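 Lung cancer cell lines in 1536-well plates were dosed by pin tool the day after seeding, either with one drug alone or with a fixed anchor-drug dose plus five library-drug doses (not always all listed) in √10 steps. After 5 days, cells were fixed and their nuclei stained in one step (final 0.05% Triton X-100, 1% formaldehyde, 1 ug/ml Hoechst), then counted on 4× images. Relative viability is the nuclei count in treated wells divided by that in vehicle wells. Values are medians of duplicate plates.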

[2] = compound: C[C@]1(O)C[C@@H](c2nc(-c3ccc4ccc(-c5ccccc5)nc4c3)c3c(N)nccn32)C1 [Linsitinib] + Nc1ncn([C@H]2C[C@H](O)[C@@H](CO)O2)c(=O)n1 [Decitabine] (partner 2 µM)
How it was run: as §1

[3] = compound: Cc1ccc(C(=O)N(CCCN)[C@@H](c2nc3cc(Cl)ccc3c(=O)n2Cc2ccccc2)C(C)C)cc1 [Ispinesib] + CC(=O)Nc1cccc(-n2c(=O)n(C3CC3)c(=O)c3c(Nc4ccc(I)cc4F)n(C)c(=O)c(C)c32)c1 [Trametinib] (partner 0.02 µM)
How it was run: as §1

[4] = compound: Cc1ccc(C(=O)N(CCCN)[C@@H](c2nc3cc(Cl)ccc3c(=O)n2Cc2ccccc2)C(C)C)cc1 [Ispinesib] + Nc1ncn([C@H]2C[C@H](O)[C@@H](CO)O2)c(=O)n1 [Decitabine] (partner 2 µM)
How it was run: as §1

Cell Line	relative viability ([1]; first compound 0.01 µM)	relative viability ([1]; first compound 0.03162 µM)	relative viability ([1]; first compound 0.1 µM)	relative viability ([1]; first compound 0.3162 µM)	relative viability ([1]; first compound 1 µM)	relative viability ([2]; first compound 0.01 µM)	relative viability ([2]; first compound 0.03162 µM)	relative viability ([2]; first compound 0.1 µM)	relative viability ([2]; first compound 1 µM)	relative viability ([3]; first compound 0.001 µM)	relative viability ([3]; first compound 0.003162 µM)	relative viability ([3]; first compound 0.01 µM)	relative viability ([3]; first compound 0.03162 µM)	relative viability ([3]; first compound 0.1 µM)	relative viability ([4]; first compound 0.001 µM)	relative viability ([4]; first compound 0.003162 µM)	relative viability ([4]; first compound 0.01 µM)	relative viability ([4]; first compound 0.03162 µM)	relative viability ([4]; first compound 0.1 µM)	relative viability ([2]; first compound 0.3162 µM)
LU99A	0.975	0.892	0.749	0.602	0.691	0.924	0.881	0.81	0.917	0.514	0.579	0.577	0.335	0.352	0.868	1.1	1.02	0.674	0.727	
SW 1573	0.921	0.925	1	0.81	0.701	0.648	0.589	0.447	0.348	0.614	0.547	0.516	0.158	0.144	0.44	0.58	0.421	0.156	0.199	0.472
COR-L23	0.915	1.01	1.11	0.931	0.897	0.399	0.539	0.418	0.441	0.611	0.565	0.376	0.103	0.168	0.447	0.388	0.454	0.176	0.141	0.351
NCI-H1755	0.974	1.04	0.986	0.839	0.905	0.719	0.856	0.719	0.702	0.843	0.838	0.751	0.713	0.758	0.704	0.771	0.758	0.75	0.72	0.559
LOU-NH91	0.786	0.651	0.707	0.686	0.678	0.813	0.806	0.803	0.782	0.772	0.774	0.814	0.725	0.309	0.795	0.852	0.858	0.786	0.342	0.715
EMC-BAC-2	1.16	1.17	1.14	0.996	1.16	0.98	1.11	0.881	0.727	0.846	0.966	0.965	0.624	0.312	0.933	1.13	1.04	0.775	0.47	0.733
ChaGo-K-1	1.09	0.793	0.829	0.377	0.939	0.504	0.519	0.49	0.51	0.903	0.999	1.06	0.992	0.895	0.463	0.56	0.494	0.574	0.521	
NCI-H2023	1.02	0.628	1.07	0.839	0.87	0.213		0.239	0.243	0.574	0.606	0.551	0.24	0.14	0.226	0.233	0.247	0.129	0.103	0.196
EKVX	0.967	0.637	0.989	0.814	0.854		0.37	0.329	0.324	0.321		0.361	0.603	0.218	0.366		0.337	0.284	0.218	0.348
NCI-H2085	1.03	1.11	1.22	1.07	1.2	0.525	0.59	0.509	0.618	0.498	0.563	0.58	0.519	0.472	0.487	0.524	0.581	0.577	0.556	0.528
NCI-H3122	1.02	1.05	1.04	1.02	1.08	0.442	0.388	0.424	0.462	0.284	0.252	0.246	0.316	0.162	0.498	0.443	0.426	0.483	0.292	
HCC-827	1	1.04	1.01		0.974	0.165	0.427	0.287	0.34	0.595	0.516	0.542	0.57	0.59	0.303	0.373	0.32	0.294	0.234	
HARA	1.09	1.17	1.13	0.788	1.15	0.518	0.533	0.526	0.678	0.727	0.634	0.816	1.14	0.234	0.514	0.467	0.573	0.709	0.314	
NCI-H441	0.803	0.795	1.12	0.397	0.439	0.246	0.26	0.223	0.257	0.47	0.458	0.284	0.255	0.212	0.216	0.139	0.192	0.18	0.193	0.212
SK-MES-1	1.26	1.31	1.33	0.979	1.16	0.39	0.369	0.387	0.423	0.586	0.533	0.583	0.21	0.195	0.359	0.393	0.286	0.187	0.211	0.418
HCC-15	0.657	0.698	0.693	0.489	0.62	0.63	0.509	0.61	0.368	0.262	0.42	0.422	0.381	0.296	0.706	0.768	0.752	0.418	0.225	0.28
